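Tested at 5 concentrations; 48 h exposure; 96-well plates; endpoints linearly interpolated, else capped at highest concentration. GI50 = concentration required for 50% inhibition of growth.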 The source made the active and inactive calls. No stated cut-off is given here; in the data, active = GI50 up to about 1.1 µM and inactive = higher. Where a SMILES comes first, the peptide text is derived from it. [ ]: non-standard residue; d: D form. Phe(4-NO2) = N[CH](Cc1ccc([N+](=O)[O-])cc1)C(=O)O
Legend:
Assay in all cases: growth of human tumour cells (NCI), 48 h
UACC-257 = tested on: UACC-257
ACHN = tested on: ACHN
K562 = tested on: K562
CCRF-CEM = tested on: CCRF-CEM
KM12 = tested on: KM12
SN12C = tested on: SN12C
NCI-H460 = tested on: NCI-H460
OVCAR-3 = tested on: OVCAR-3
OVCAR-8 = tested on: OVCAR-8
HCT-116 = tested on: HCT-116
SK-OV-3 = tested on: SK-OV-3
T47D = tested on: T47D
Hs-578T = tested on: Hs-578T
A549 = tested on: A549
NCI-H23 = tested on: NCI-H23
HOP-92 = tested on: HOP-92
SNB-75 = tested on: SNB-75
SF-539 = tested on: SF-539
SK-MEL-5 = tested on: SK-MEL-5
SR = tested on: SR

SMILES | GI50 (UACC-257) | GI50 (ACHN) | GI50 (K562) | GI50 (CCRF-CEM) | GI50 (KM12) | GI50 (SN12C) | GI50 (NCI-H460) | GI50 (OVCAR-3) | GI50 (OVCAR-8) | GI50 (HCT-116) | GI50 (SK-OV-3) | GI50 (T47D) | GI50 (Hs-578T) | GI50 (A549) | GI50 (NCI-H23) | GI50 (HOP-92) | GI50 (SNB-75) | GI50 (SF-539) | GI50 (SK-MEL-5) | GI50 (SR)
O=C(O)CCC1COc2ccccc2O1 (configuration not stated) | > 10 µM (inactive) | > 10 µM (inactive) | > 10 µM (inactive) | > 10 µM (inactive) | > 10 µM (inactive) | > 10 µM (inactive) | > 10 µM (inactive) | > 10 µM (inactive) | > 10 µM (inactive) | > 10 µM (inactive) | > 10 µM (inactive) | > 10 µM (inactive) | > 10 µM (inactive) | > 10 µM (inactive) | > 10 µM (inactive) | > 10 µM (inactive) | > 10 µM (inactive) | > 10 µM (inactive) | > 10 µM (inactive) | 
Cc1cc(C)cc(Nc2nnc3n2S(=O)(=O)c2cc(C#N)c(Cl)cc2S3)c1 | 1.44 µM (inactive) | 3.08 µM (inactive) | 1.47 µM (inactive) | 1.07 µM (active) | 1.89 µM (inactive) | 2.59 µM (inactive) | 3.14 µM (inactive) | 1.57 µM (inactive) |  | 2.17 µM (inactive) | 6.56 µM (inactive) | 3.26 µM (inactive) | 2.68 µM (inactive) | 16.2 µM (inactive) | 1.77 µM (inactive) |  | 2.32 µM (inactive) | 1.89 µM (inactive) | 7.55 µM (inactive) | 0.507 µM (active)
COC(=O)C1(N2CCOCC2)CCC([C@@H](c2ccccc2)C(C)[N+](=O)[O-])C1 (some centres not stated) | 28 µM (inactive) | > 100 µM (inactive) | 51.6 µM (inactive) | 0.603 µM (active) | > 100 µM (inactive) | > 100 µM (inactive) | > 100 µM (inactive) | 18.7 µM (inactive) | > 100 µM (inactive) |  | > 100 µM (inactive) | 2.03 µM (inactive) | > 100 µM (inactive) | > 100 µM (inactive) | > 100 µM (inactive) |  | 34.5 µM (inactive) | > 100 µM (inactive) | > 100 µM (inactive) | 20.8 µM (inactive)
COCCOC(=O)C(C)=[N+]=[N-] | > 100 µM (inactive) | > 100 µM (inactive) | > 100 µM (inactive) |  | > 100 µM (inactive) | > 100 µM (inactive) | > 100 µM (inactive) | > 100 µM (inactive) | > 100 µM (inactive) | > 100 µM (inactive) |  | > 100 µM (inactive) | > 100 µM (inactive) |  | > 100 µM (inactive) |  | > 100 µM (inactive) |  | > 100 µM (inactive) | 68.1 µM (inactive)
C1=C\SS/C=C\SS/1 | 38.9 µM (inactive) | 27.9 µM (inactive) | 26.1 µM (inactive) | 2.28 µM (inactive) | 36 µM (inactive) | 61.9 µM (inactive) | 23.9 µM (inactive) |  | 17.1 µM (inactive) | 34.4 µM (inactive) | > 100 µM (inactive) | 55.1 µM (inactive) | > 100 µM (inactive) | 48.1 µM (inactive) | 40.9 µM (inactive) | 24.3 µM (inactive) |  |  | 24.5 µM (inactive) | > 100 µM (inactive)
CN(CCNC(=O)c1nn(-c2ccccc2)c2c1Cc1ccccc1-2)CCNC(=O)c1nn(-c2ccccc2)c2c1Cc1ccccc1-2 | 1.79 µM (inactive) | 1.74 µM (inactive) | 2.11 µM (inactive) | 1.77 µM (inactive) | 1.79 µM (inactive) | 1.83 µM (inactive) | 1.69 µM (inactive) | 1.68 µM (inactive) | 1.68 µM (inactive) | 1.65 µM (inactive) | 2 µM (inactive) | 2.48 µM (inactive) | 1.87 µM (inactive) | 2.06 µM (inactive) | 1.87 µM (inactive) | 1.53 µM (inactive) | 1.69 µM (inactive) | 2.17 µM (inactive) | 1.79 µM (inactive) | 
c1ccc(Sc2nc(Sc3ccccc3)nc(Sc3ccccc3)n2)cc1 | 30.3 µM (inactive) | 29.8 µM (inactive) | > 100 µM (inactive) | 6.46 µM (inactive) | 13.9 µM (inactive) | > 100 µM (inactive) | 47.6 µM (inactive) | 13.3 µM (inactive) |  | 60.1 µM (inactive) | > 100 µM (inactive) | 22.3 µM (inactive) | 13.3 µM (inactive) | 28.5 µM (inactive) | > 100 µM (inactive) |  |  | 31.7 µM (inactive) | > 100 µM (inactive) | > 100 µM (inactive)
O=C1NC2=NOC(=O)NC2=NO1 | > 200 µM (inactive) | > 200 µM (inactive) | > 200 µM (inactive) | > 200 µM (inactive) | > 200 µM (inactive) | > 200 µM (inactive) | > 200 µM (inactive) | > 200 µM (inactive) | > 200 µM (inactive) | > 200 µM (inactive) | > 200 µM (inactive) | > 200 µM (inactive) | > 200 µM (inactive) | > 200 µM (inactive) | > 200 µM (inactive) | > 200 µM (inactive) | > 200 µM (inactive) | > 200 µM (inactive) | > 200 µM (inactive) | 
Cn1c2c(c3ccccc31)CCN1C(=O)C34CCCC3CC21S4 (configuration not stated) | > 100 µM (inactive) | > 100 µM (inactive) | > 100 µM (inactive) |  | > 100 µM (inactive) | > 100 µM (inactive) |  | > 100 µM (inactive) | > 100 µM (inactive) | > 100 µM (inactive) | > 100 µM (inactive) | 87.1 µM (inactive) | > 100 µM (inactive) | > 100 µM (inactive) | > 100 µM (inactive) | > 100 µM (inactive) |  | > 100 µM (inactive) | 76.2 µM (inactive) | > 100 µM (inactive)
Nc1nc(Cl)cc(NCC2(CO)CC(=O)C2)n1 | > 100 µM (inactive) | > 100 µM (inactive) | > 100 µM (inactive) | > 100 µM (inactive) | > 100 µM (inactive) | > 100 µM (inactive) | > 100 µM (inactive) | > 100 µM (inactive) | 65.3 µM (inactive) | > 100 µM (inactive) | > 100 µM (inactive) | 21.2 µM (inactive) | > 100 µM (inactive) | > 100 µM (inactive) | > 100 µM (inactive) | > 100 µM (inactive) |  | > 100 µM (inactive) | > 100 µM (inactive) | > 100 µM (inactive)
CC(NC(=O)C(Cc1ccc([N+](=O)[O-])cc1)NC(=O)C(N)CCCCN)C(=O)NC(Cc1ccc([N+](=O)[O-])cc1)C(N)=O (configuration not stated) (H-K[Phe(4-NO2)]A[Phe(4-NO2)]-NH2; configuration not given here) | > 68.2 µM (inactive) | 32.8 µM (inactive) | > 20.5 µM (inactive) | > 100 µM (inactive) | 23.4 µM (inactive) | 24.9 µM (inactive) | 20.6 µM (inactive) | 17.4 µM (inactive) | 23.9 µM (inactive) | > 45.2 µM (inactive) | > 100 µM (inactive) | > 49.1 µM (inactive) | > 68.7 µM (inactive) | 23 µM (inactive) | 85.3 µM (inactive) | 28.3 µM (inactive) | > 37.5 µM (inactive) | 58.1 µM (inactive) | 35.8 µM (inactive) | 

— ChEMBL document CHEMBL1201862, “PubChem BioAssay data set” (2004)
